Series [1] addresses T1, GLP-1 receptor (Homo sapiens, UniProt P43220).
T1 construct: expressed in transfected cells; host or cells: HEK293
Kind of series: Luciferase-based reporter gene assay for cAMP detection, HEK293 cells co-transfected with GLP-1 receptor (prodrug samples pre-incubated in PBS or plasma). It is filed as cell-based. On the technique in general: Reporter assays use an easily measured gene product as a stand-in for the process of interest.
Procedure: To explore the possible formation of DKP and simultaneous regeneration of the parent drug, 40 k PEG-Aib^−1-P^0,C^24GLP(7-36) was incubated in PBS buffer at 37° C. for approximately 10 days.

Series [2] is described as follows: Dipeptide cleavage half time in PBS on model hexapeptide (HPLC / LC-MS). The following applies: for Relative peak area(%), HPLC peak a / Relative peak area(%), HPLC peak b: PBS; for Relative peak area(%), HPLC peak a: peak a MW 702; for Relative peak area(%), HPLC peak b: peak b MW 902; for half-life: buffer.
Procedure: (§1) The flow rate was 1 mL/min. Solvent A contained 0.1% TFA in distilled water, and solvent B contained 0.1% TFA in 90% CH3CN. A linear gradient was employed (0% to 30% B in 10 minutes). The data were collected and analyzed using Peak Simple Chromatography software.
(§2) The initial rates of cleavage were used to measure the rate constant for the dissociation of the respective prodrugs. […] The first order dissociation rate constants of the prodrugs were determined by plotting the logarithm of the concentration of the prodrug at various time intervals. The slope of this plot gives the rate constant ‘k’.
For series [3] the following is noted: buffer.
Procedure: as §1, §2

Experimental findings from patent US8778872B2 (priority 2010, dated 2014) are described below.

Like-named read-outs stand apart in the source and are kept apart here. Where a SMILES comes first, the peptide text is derived from it. Where no end group is shown, it is not given here. Side-chain parts run from the residue outwards. [ ]: non-standard residue; d: D form. Ac6c = NC1(C(=O)O)CCCCC1; Ac3c = NC1(C(=O)O)CC1; Aib = CC(C)(N)C(=O)O; PEG40k = 40 kDa PEG; Sar = CNCC(=O)O

T1 sequence (P43220 24-463, species assumed): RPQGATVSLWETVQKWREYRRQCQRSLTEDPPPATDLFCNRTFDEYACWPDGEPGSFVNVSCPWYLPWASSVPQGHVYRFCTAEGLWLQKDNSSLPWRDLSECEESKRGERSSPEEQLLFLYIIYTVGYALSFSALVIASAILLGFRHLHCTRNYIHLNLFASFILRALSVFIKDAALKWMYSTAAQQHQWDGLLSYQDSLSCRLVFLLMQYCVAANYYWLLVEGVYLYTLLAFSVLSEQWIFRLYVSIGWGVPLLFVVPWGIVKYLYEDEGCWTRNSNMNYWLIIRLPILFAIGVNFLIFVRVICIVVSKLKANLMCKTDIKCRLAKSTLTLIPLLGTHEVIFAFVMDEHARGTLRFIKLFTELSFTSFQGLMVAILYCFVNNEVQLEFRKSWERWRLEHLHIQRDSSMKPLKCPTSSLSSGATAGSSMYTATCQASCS

Regarding “40 kPEG-Aib^−1-P^0,C^24GLP(7-36): Aib^−1-P^0,C^24GLP(7-36) pegylated by maleimido-functioned 40 k Da PEG on the SH group of 24-Cys ([Aib]PHAEGTFTSDVSSYLEGQAAKEFIC([maleimide-PEG40k])WLVKGR)”, the EC50%/STD ratio in series [1] (prodrug incubated in PBS at 37° C. for 30 h) worked out at 17.31%; in series [1] (prodrug incubated in PBS at 37° C. for 54 h), 27.74%; in series [1] (prodrug incubated in PBS at 37° C. for 240 h) it was 66.49%; in series [1] (prodrug incubated in PBS at 37° C. for […]), 55.90%.

Take `C[C@@H](O)[C@H](NC(=O)CNC(=O)[C@H](CCCNC(=N)N)NC(=O)[C@H](CO)NC(=O)[C@H](Cc1c[nH]cn1)NC(=O)CN(C)C(=O)[C@@H](N)CCCCN)C(=O)N[C@@H](Cc1ccccc1)C(N)=O` [A peptide, lys-sar-HSRGTF-NH2] (H-K[Sar]HSRGTF-NH2; N-terminus assumed): the “Relative peak area(%), HPLC peak a” value in series [2] (5 h) amounted to 26.5%; in series [2] (8 h), 28.9%; in series [2] (24 h), 28.8%; in series [2] (31 h), 77.7%; in series [2] (47 h) it was 90.0%. Moreover, the “Relative peak area(%), HPLC peak b” value in series [2] (5 h) was 73.5%; in series [2] (8 h), 71.1%; in series [2] (24 h), 71.2%; in series [2] (31 h), 22.3%; in series [2] (47 h), 10.0%.

As a reminder, the half-life is the time in which the quantity being followed falls by half. A lower half-life goes with rapid decline. In turn, `C[C@@H](O)[C@H](NC(=O)CNC(=O)[C@H](CCCNC(=N)N)NC(=O)[C@H](CO)NC(=O)[C@H](Cc1c[nH]cn1)NC(=O)[C@@H](N)Cc1ccc(NC(=O)[C@@H]2CCCN2C(=O)[C@@H](N)Cc2ccccc2)cc1)C(=O)N[C@@H](Cc1ccccc1)C(N)=O` [Compounds 1] had a half-life in series [2] of 58 h.

Take `C[C@@H](O)[C@H](NC(=O)CNC(=O)[C@H](CCCNC(=N)N)NC(=O)[C@H](CO)NC(=O)[C@H](Cc1c[nH]cn1)NC(=O)[C@@H](N)Cc1ccc(NC(=O)[C@@H]2CCCN2C(=O)[C@H](N)Cc2ccccc2)cc1)C(=O)N[C@@H](Cc1ccccc1)C(N)=O` [Compounds 3]: the half-life in series [2] is 20 h.

The compound `C[C@@H](O)[C@H](NC(=O)CNC(=O)[C@H](CCCNC(=N)N)NC(=O)[C@H](CO)NC(=O)[C@H](Cc1c[nH]cn1)NC(=O)[C@@H](N)Cc1ccc(NC(=O)[C@H]2CCCN2C(=O)[C@H](N)Cc2ccccc2)cc1)C(=O)N[C@@H](Cc1ccccc1)C(N)=O` [Compounds 4] gave a half-life in series [2] of 39 h.

Compound `C[C@@H](O)[C@H](NC(=O)CNC(=O)[C@H](CCCNC(=N)N)NC(=O)[C@H](CO)NC(=O)[C@H](Cc1c[nH]cn1)NC(=O)[C@@H](N)Cc1ccc(NC(=O)[C@@H]2CCCN2C(=O)CN)cc1)C(=O)N[C@@H](Cc1ccccc1)C(N)=O` [Compounds 5] had a half-life in series [2] of 72 h.

In turn, `C[C@@H](O)[C@H](NC(=O)CNC(=O)[C@H](CCCNC(=N)N)NC(=O)[C@H](CO)NC(=O)[C@H](Cc1c[nH]cn1)NC(=O)[C@@H](N)Cc1ccc(NC(=O)[C@@H]2CCCN2C(=O)CO)cc1)C(=O)N[C@@H](Cc1ccccc1)C(N)=O` [Compounds 6] showed a half-life in series [2] of 603 h.

With `CC(C)C[C@H](N)C(=O)N1CCC[C@H]1C(=O)Nc1ccc(C[C@H](N)C(=O)N[C@@H](Cc2c[nH]cn2)C(=O)N[C@@H](CO)C(=O)N[C@@H](CCCNC(=N)N)C(=O)NCC(=O)N[C@H](C(=O)N[C@@H](Cc2ccccc2)C(N)=O)[C@@H](C)O)cc1` [Compounds 7], the half-life in series [2] is 62 h.

The compound `C[C@@H](O)[C@H](NC(=O)CNC(=O)[C@H](CCCNC(=N)N)NC(=O)[C@H](CO)NC(=O)[C@H](Cc1c[nH]cn1)NC(=O)[C@@H](N)Cc1ccc(NC(=O)[C@@H]2CCCN2C(=O)[C@@H](N)C(C)(C)C)cc1)C(=O)N[C@@H](Cc1ccccc1)C(N)=O` [Compounds 8] had a half-life in series [3] of 200 h.

On to `C[C@@H](O)[C@H](NC(=O)CNC(=O)[C@H](CCCNC(=N)N)NC(=O)[C@H](CO)NC(=O)[C@H](Cc1c[nH]cn1)NC(=O)[C@@H](N)Cc1ccc(NC(=O)[C@@H]2CCCN2C(=O)[C@@H](N)CO)cc1)C(=O)N[C@@H](Cc1ccccc1)C(N)=O` [Compounds 9], for which the half-life in series [2] was 34 h.

In series [2], `C[C@@H](O)[C@H](NC(=O)CNC(=O)[C@H](CCCNC(=N)N)NC(=O)[C@H](CO)NC(=O)[C@H](Cc1c[nH]cn1)NC(=O)[C@@H](N)Cc1ccc(NC(=O)[C@@H]2CCCN2C(=O)[C@@H]2CCCN2)cc1)C(=O)N[C@@H](Cc1ccccc1)C(N)=O` [Compounds 10] showed a half-life of 97 h.

In turn, `C[C@@H](O)[C@H](NC(=O)CNC(=O)[C@H](CCCNC(=N)N)NC(=O)[C@H](CO)NC(=O)[C@H](Cc1c[nH]cn1)NC(=O)[C@@H](N)Cc1ccc(NC(=O)[C@@H]2CCCN2C(=O)[C@@H](N)CCCCN)cc1)C(=O)N[C@@H](Cc1ccccc1)C(N)=O` [Compounds 11] gave a half-life in series [2] of 33 h.

Turning to `C[C@@H](O)[C@H](NC(=O)CNC(=O)[C@H](CCCNC(=N)N)NC(=O)[C@H](CO)NC(=O)[C@H](Cc1c[nH]cn1)NC(=O)[C@@H](N)Cc1ccc(NC(=O)[C@@H]2CCCN2C(=O)[C@H](N)CCCCN)cc1)C(=O)N[C@@H](Cc1ccccc1)C(N)=O` [Compounds 12], the half-life in series [2] was 11 h.

Regarding `C[C@@H](O)[C@H](NC(=O)CNC(=O)[C@H](CCCNC(=N)N)NC(=O)[C@H](CO)NC(=O)[C@H](Cc1c[nH]cn1)NC(=O)[C@@H](N)Cc1ccc(NC(=O)[C@@H]2CCCN2C(=O)[C@@H](N)CCC(=O)O)cc1)C(=O)N[C@@H](Cc1ccccc1)C(N)=O` [Compounds 13], the half-life in series [2] is 85 h.

In turn, `CNCC(=O)N1CCC[C@H]1C(=O)Nc1ccc(C[C@H](N)C(=O)N[C@@H](Cc2c[nH]cn2)C(=O)N[C@@H](CO)C(=O)N[C@@H](CCCNC(=N)N)C(=O)NCC(=O)N[C@H](C(=O)N[C@@H](Cc2ccccc2)C(N)=O)[C@@H](C)O)cc1` [Compounds 14] gave a half-life in series [2] of about 1000 h.

`C[C@@H](O)[C@H](NC(=O)CNC(=O)[C@H](CCCNC(=N)N)NC(=O)[C@H](CO)NC(=O)[C@H](Cc1c[nH]cn1)NC(=O)[C@@H](N)Cc1ccc(NC(=O)[C@@H]2CCCN2C(=O)C(C)(C)N)cc1)C(=O)N[C@@H](Cc1ccccc1)C(N)=O` [Compounds 15]: in series [3], the half-life is 1.15 h.

In turn, `C[C@@H](O)[C@H](NC(=O)CNC(=O)[C@H](CCCNC(=N)N)NC(=O)[C@H](CO)NC(=O)[C@H](Cc1c[nH]cn1)NC(=O)[C@@H](N)Cc1ccc(NC(=O)[C@@H]2CCCN2C(=O)C(C)(C)O)cc1)C(=O)N[C@@H](Cc1ccccc1)C(N)=O` [Compounds 16] gave a half-life in series [3] of 33 h.

Take `C[C@@H](O)[C@H](NC(=O)CNC(=O)[C@H](CCCNC(=N)N)NC(=O)[C@H](CO)NC(=O)[C@H](Cc1c[nH]cn1)NC(=O)[C@@H](N)Cc1ccc(NC(=O)[C@@H]2CCCN2C(=O)C2(N)CCCCC2)cc1)C(=O)N[C@@H](Cc1ccccc1)C(N)=O` [Compounds 17]: the half-life in series [3] was found to be 0.1 h.

With `C[C@@H](O)[C@H](NC(=O)CNC(=O)[C@H](CCCNC(=N)N)NC(=O)[C@H](CO)NC(=O)[C@H](Cc1c[nH]cn1)NC(=O)[C@@H]1CCCN1C(=O)C1(N)CCCCC1)C(=O)N[C@@H](Cc1ccccc1)C(N)=O` [Peptide 17] (H-[Ac6c]PHSRGTF-NH2), the half-life in series [2] is 5 h.

On to `C[C@@H](O)[C@H](NC(=O)CNC(=O)[C@H](CCCNC(=N)N)NC(=O)[C@H](CO)NC(=O)[C@H](Cc1c[nH]cn1)NC(=O)[C@@H]1CCCN1C(=O)C1(N)CC1)C(=O)N[C@@H](Cc1ccccc1)C(N)=O` [Peptide 18] (H-[Ac3c]PHSRGTF-NH2), for which, in series [2], the half-life was 10 h.
